What was measured:
[1] = biological target: T1, NTRK1 (Homo sapiens, UniProt P04629); assay: NGF-mediated induction of EGR genes in TE-7 cells stably expressing NTRK1, with tyrosine kinase inhibitors; assay type: cell-based; conditions: TE-7 epithelial cells, NGF stimulation
T1 construct: expressed in transfected cells
Text: In order to further investigate the functional link between IL-13 and NGF signaling we generated two pools of TE-7 cells stably expressing NTRK1 that allowed us to simultaneously induce IL-13 and NGF/NTRK1 responses.
We further hypothesized that inhibition of NTRK1 kinase activity will prevent induction of EGR genes following NGF stimulation. To test this hypothesis we utilized two tyrosine kinase inhibitors lestaurtinib (CEP-701) and crizotinib that were previously reported as efficient blockers of NTRK1 auto-phosphorylation and downstream signaling.

[2] = test system: NTRK1 expression in esophageal biopsies; assay: RT-PCR analysis of NTRK1 in esophageal biopsies of EoE patients after swallowed steroid treatment; assay type: in vivo, human; conditions: EoE patients who responded to swallowed steroid treatment (FPR, n=13) vs active EoE and controls; FIG. 4A
Method: FIG. 4. NTRK1, NGF, and EGR1 expression in human allergic inflammation. In A, RT-PCR analysis of NTRK1 in biopsies was performed in unaffected control patients (Ctrl, n=13), patients with active EoE (EoE, n=12), and EoE patients who responded to swallowed steroid treatment (fluticasone responders [FPR], n=13); ***p<0.001; ns, not significant. In B and C, the graphs show Pearson correlation of NTRK1 expression with IL-13 levels and peak eosinophil counts in EoE biopsies. […] In E, quantification of NTRK1 in control and active EoE biopsies is shown (n=5 each); *p<0.05. Expression level was normalized to the level of GAPDH. In F, RT-PCR analysis of NGF and CCL26 was performed in control and EoE biopsies (n=10 each); ****p<0.0001; ns, not significant. In G, amount of NGF and CCL26 protein was measured by ELISA in control and active EoE biopsies (n=5 each); *p<0.05; ns, not significant. […] In I, EGR1 mRNA was measured by RT-PCR in esophageal biopsies of unaffected control (Ctrl) patients and patients with active EoE (n=10 each). ***p<0.001. […]
In vitro experiments with epithelial cells prompted us to investigate whether NTRK1 is increased in epithelial cells in vivo during allergic responses. First, we assessed expression of NTRK1 mRNA in esophageal biopsies of control and EoE patients. […]

T1 sequence (P04629 33-796): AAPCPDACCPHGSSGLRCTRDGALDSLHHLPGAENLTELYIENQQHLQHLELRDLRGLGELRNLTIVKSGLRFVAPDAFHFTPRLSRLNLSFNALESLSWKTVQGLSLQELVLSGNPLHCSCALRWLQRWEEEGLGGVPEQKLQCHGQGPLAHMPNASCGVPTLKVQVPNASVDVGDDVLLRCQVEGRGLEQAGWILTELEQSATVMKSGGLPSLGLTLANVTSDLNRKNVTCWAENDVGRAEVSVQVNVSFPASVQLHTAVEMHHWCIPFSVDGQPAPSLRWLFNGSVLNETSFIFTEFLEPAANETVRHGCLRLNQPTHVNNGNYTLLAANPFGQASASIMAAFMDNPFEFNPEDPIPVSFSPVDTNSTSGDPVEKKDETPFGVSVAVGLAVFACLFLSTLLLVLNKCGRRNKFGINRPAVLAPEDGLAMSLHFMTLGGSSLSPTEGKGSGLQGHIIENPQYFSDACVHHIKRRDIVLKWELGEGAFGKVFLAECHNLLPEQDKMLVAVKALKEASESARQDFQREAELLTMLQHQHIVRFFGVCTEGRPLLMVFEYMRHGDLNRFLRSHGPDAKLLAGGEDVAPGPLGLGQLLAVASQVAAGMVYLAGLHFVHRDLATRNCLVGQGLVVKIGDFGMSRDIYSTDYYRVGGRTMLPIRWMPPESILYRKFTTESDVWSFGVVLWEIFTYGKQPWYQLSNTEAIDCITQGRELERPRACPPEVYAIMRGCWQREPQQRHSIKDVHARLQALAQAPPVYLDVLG

| SMILES | NGF-mediated increase in EGR1 mRNA ([1]; EGR1 mRNA) | NGF-mediated increase in EGR3 mRNA ([1]; EGR3 mRNA) | NTRK1 mRNA expression in esophageal biopsies [2] |
| --- | --- | --- | --- |
| C[C@@H](Oc1cc(-c2cnn(C3CCNCC3)c2)cnc1N)c1c(Cl)ccc(F)c1Cl [crizotinib] | dramatically reduced | dramatically reduced | – |
| CCC(=O)O[C@]1(C(=O)SCF)[C@H](C)C[C@H]2[C@@H]3C[C@H](F)C4=CC(=O)C=C[C@]4(C)[C@@]3(F)[C@@H](O)C[C@@]21C [fluticasone propionate] | – | – | normalized levels |
